How the values were obtained:
[1] = system: MDA-MB-231; assay: Antiproliferative activity against human MDA-MB-231 cells assessed as reduction in cell viability after 72 hrs by MTT assay; assay type: functional, cell-based; details: MDA-MB-231, 72 h
[2] = system: MDA-MB-453; assay: Antiproliferative activity against human MDA-MB-453 cells assessed as reduction in cell viability after 72 hrs by MTT assay; assay type: functional, cell-based; details: MDA-MB-453, 72 h
[3] = system: L02; assay: Cytotoxicity against human L02 cells measured upto 20 uM after 72 hrs by MTT assay; assay type: cell-based; details: l02, 72 h
[4] = biological target: Cyclin-dependent kinase 4/cyclin D1 (Homo sapiens) (UniProt P11802+P24385); assay: Inhibition of CDK4/Cyclin D1 (unknown origin) at 20 nM using ATP by mobility shift assay; assay type: protein-complex assay
[5] = biological target: CDK6/cyclin D3 (Homo sapiens) (UniProt P30281+Q00534); assay: Inhibition of CDK6/Cyclin D3 (unknown origin) at 200 nM using ATP by mobility shift assay; assay type: protein-complex assay
[6] = biological target: CDK6/cyclin D3 (Homo sapiens, UniProt Q00534); assay: Inhibition of CDK6/Cyclin D3 (unknown origin) by mobility shift assay; assay type: protein-complex assay
Chain of CDK6/cyclin D3 (P30281 whole entry): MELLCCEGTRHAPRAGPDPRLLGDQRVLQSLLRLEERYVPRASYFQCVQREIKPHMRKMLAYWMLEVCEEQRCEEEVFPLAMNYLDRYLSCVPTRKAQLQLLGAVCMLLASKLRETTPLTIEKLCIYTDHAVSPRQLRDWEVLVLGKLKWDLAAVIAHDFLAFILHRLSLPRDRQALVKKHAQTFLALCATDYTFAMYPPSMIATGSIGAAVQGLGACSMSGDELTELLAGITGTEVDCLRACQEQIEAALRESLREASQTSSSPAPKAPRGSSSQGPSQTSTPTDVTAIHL
Chain of CDK6/cyclin D3 (Q00534 whole entry): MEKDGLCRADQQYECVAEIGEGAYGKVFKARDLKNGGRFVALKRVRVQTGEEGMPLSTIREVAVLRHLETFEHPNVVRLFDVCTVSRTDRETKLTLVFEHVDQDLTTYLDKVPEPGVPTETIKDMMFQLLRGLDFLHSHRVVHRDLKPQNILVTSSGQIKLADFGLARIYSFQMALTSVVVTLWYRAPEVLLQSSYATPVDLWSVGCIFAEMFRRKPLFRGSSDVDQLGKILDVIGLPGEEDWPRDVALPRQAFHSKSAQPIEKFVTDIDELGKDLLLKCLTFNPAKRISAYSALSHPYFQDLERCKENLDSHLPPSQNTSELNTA

[7] = biological target: CDK4/Cyclin D3 (Homo sapiens, UniProt P11802); assay: Inhibition of CDK4/Cyclin D3 (unknown origin) by mobility shift assay; assay type: protein-complex assay
Chain of CDK4/Cyclin D3 (P11802 whole entry): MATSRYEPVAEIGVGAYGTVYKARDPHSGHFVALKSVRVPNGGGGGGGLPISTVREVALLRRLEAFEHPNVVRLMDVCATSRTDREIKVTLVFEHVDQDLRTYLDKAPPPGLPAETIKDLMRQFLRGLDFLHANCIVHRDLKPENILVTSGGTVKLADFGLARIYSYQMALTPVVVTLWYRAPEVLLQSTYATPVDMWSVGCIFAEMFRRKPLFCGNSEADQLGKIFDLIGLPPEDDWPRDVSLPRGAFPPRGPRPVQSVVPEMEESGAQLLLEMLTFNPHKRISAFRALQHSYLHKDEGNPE
Chain of CDK4/Cyclin D3 (P30281 whole entry, further chain): as the sequence (P30281 whole entry) above

[8] = system: MDA-MB-231; assay: Induction of cell cycle arrest in human MDA-MB-231 cells assessed as accumulation at G1 phase at 0.1875 uM after 12 hrs by propidium iodide staining-based flow cytometric analysis (reference value: 53.11%); assay type: functional
[9] = system: MDA-MB-231; assay: Induction of cell cycle arrest in human MDA-MB-231 cells assessed as accumulation at S phase at 0.1875 uM after 12 hrs by propidium iodide staining-based flow cytometric analysis (reference value: 21.11%); assay type: functional
[10] = system: MDA-MB-231; assay: Induction of cell cycle arrest in human MDA-MB-231 cells assessed as accumulation at S phase at 1.5 uM after 12 hrs by propidium iodide staining-based flow cytometric analysis (reference value: 23.71%); assay type: functional
[11] = system: MDA-MB-231; assay: Induction of apoptosis in human MDA-MB-231 cells assessed as early apoptotic cells at 2.5 uM after 24 hrs by Annexin-V/PI-staining based flow cytometry (reference value: 2.67%); assay type: functional
[12] = system: MDA-MB-231; assay: Induction of apoptosis in human MDA-MB-231 cells assessed as early apoptotic cells at 5 uM after 24 hrs by Annexin-V/PI-staining based flow cytometry (reference value: 2.67%); assay type: functional
[13] = system: MDA-MB-231; assay: Induction of apoptosis in human MDA-MB-231 cells assessed as late apoptotic cells at 10 uM after 24 hrs by Annexin-V/PI-staining based flow cytometry (reference value: 3.02%); assay type: functional
[14] = system: NCI-H1299; assay: Potency index, ratio of IC50 for Palbociclib to IC50 for test compound for antiproliferative activity against human H1299 cells assessed as reduction in cell viability after 72 hrs by MTT assay; assay type: functional
[15] = system: MDA-MB-231; assay: Potency index, ratio of IC50 for Palbociclib to IC50 for test compound for antiproliferative activity against human MDA-MB-231 cells assessed as reduction in cell viability after 72 hrs by MTT assay; assay type: functional
[16] = biological target: Cyclin-dependent kinase 1/cyclin B1 (Homo sapiens, UniProt P06493); assay: Inhibition of CDK1/cyclin B (unknown origin); assay type: protein-complex assay
Chain of Cyclin-dependent kinase 1/cyclin B1 (P06493 whole entry): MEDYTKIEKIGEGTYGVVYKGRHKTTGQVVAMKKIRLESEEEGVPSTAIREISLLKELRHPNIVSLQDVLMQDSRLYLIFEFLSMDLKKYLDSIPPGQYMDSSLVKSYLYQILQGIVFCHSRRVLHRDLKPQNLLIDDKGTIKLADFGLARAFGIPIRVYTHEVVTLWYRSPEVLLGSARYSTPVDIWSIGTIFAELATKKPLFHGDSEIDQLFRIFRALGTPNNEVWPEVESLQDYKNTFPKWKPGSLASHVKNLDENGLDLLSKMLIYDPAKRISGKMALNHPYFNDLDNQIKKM
Chain of Cyclin-dependent kinase 1/cyclin B1 (P14635 whole entry, further chain): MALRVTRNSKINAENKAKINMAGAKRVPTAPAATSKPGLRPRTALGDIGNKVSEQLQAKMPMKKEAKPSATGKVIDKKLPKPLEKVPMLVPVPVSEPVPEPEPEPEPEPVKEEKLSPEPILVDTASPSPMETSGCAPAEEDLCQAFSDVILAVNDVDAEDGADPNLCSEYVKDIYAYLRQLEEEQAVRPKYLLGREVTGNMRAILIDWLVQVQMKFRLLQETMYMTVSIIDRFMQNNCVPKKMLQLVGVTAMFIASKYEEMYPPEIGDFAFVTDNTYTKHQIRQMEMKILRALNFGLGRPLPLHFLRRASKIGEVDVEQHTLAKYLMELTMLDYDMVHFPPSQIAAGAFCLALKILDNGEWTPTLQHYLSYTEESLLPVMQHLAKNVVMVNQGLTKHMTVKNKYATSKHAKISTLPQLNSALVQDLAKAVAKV

- IC50 [1]: 1210 nM
- IC50 [2]: 1750 nM
- inhibition [4]: 61.7%
- inhibition [5]: 95.3%
- IC50 [6]: 14 nM
- IC50 [7]: 6.1 nM
- IC50 [16]: > 10000 nM
SMILES: CC(=O)c1c(C)c2cnc(Nc3ccc(N4CCN(C(=O)CCl)CC4)cn3)nc2n(C2CCCC2)c1=O
- Activity [3]: Non-Toxic
- Activity [8]: 68.04%
- Activity [9]: 13.82%
- Activity [10]: 7.55%
- Activity [11]: 17.09%
- Activity [12]: 44.02%
- Activity [13]: 14.54%
- Ratio IC50 [14]: 4
- Ratio IC50 [15]: 4
